Measurements: PubChem BioAssay (NCI)
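At the GI50, growth is halved. At the TGI there is no net growth.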

Assays:
Assay in all cases: NCI anticancer screen, dose series, 384-well format
786-0 renal = tested on: 786-0 renal
A498 renal = tested on: A498 renal
A549 NSCLC = tested on: A549 NSCLC
ACHN renal = tested on: ACHN renal
BT-549 breast = tested on: BT-549 breast
CAKI-1 renal = tested on: CAKI-1 renal
CCRF-CEM leukemia = tested on: CCRF-CEM leukemia
COLO 205 colon = tested on: COLO 205 colon
DU-145 prostate = tested on: DU-145 prostate
EKVX NSCLC = tested on: EKVX NSCLC
HCC-2998 colon = tested on: HCC-2998 colon
HCT-116 colon = tested on: HCT-116 colon
HCT-15 colon = tested on: HCT-15 colon
HL-60(TB) leukemia = tested on: HL-60(TB) leukemia
HOP-62 NSCLC = tested on: HOP-62 NSCLC
HOP-92 NSCLC = tested on: HOP-92 NSCLC
HS 578T breast = tested on: HS 578T breast
HT29 colon = tested on: HT29 colon
IGROV1 ovarian = tested on: IGROV1 ovarian
K-562 leukemia = tested on: K-562 leukemia
KM12 colon = tested on: KM12 colon
M14 melanoma = tested on: M14 melanoma
MALME-3M melanoma = tested on: MALME-3M melanoma
MCF7 breast = tested on: MCF7 breast
MDA-MB-231 breast = tested on: MDA-MB-231 breast
MDA-MB-435 melanoma = tested on: MDA-MB-435 melanoma
MDA-MB-468 breast = tested on: MDA-MB-468 breast
MOLT-4 leukemia = tested on: MOLT-4 leukemia
NCI-H226 lung = tested on: NCI-H226 lung
NCI-H23 lung = tested on: NCI-H23 lung
NCI-H322M lung = tested on: NCI-H322M lung
NCI-H460 NSCLC = tested on: NCI-H460 NSCLC
NCI-H522 lung = tested on: NCI-H522 lung
NCI/ADR-RES ovarian = tested on: NCI/ADR-RES ovarian
OVCAR-3 ovarian = tested on: OVCAR-3 ovarian
OVCAR-4 ovarian = tested on: OVCAR-4 ovarian
OVCAR-5 ovarian = tested on: OVCAR-5 ovarian
OVCAR-8 ovarian = tested on: OVCAR-8 ovarian
PC-3 prostate = tested on: PC-3 prostate
RPMI-8226 leukemia = tested on: RPMI-8226 leukemia
RXF 393 renal = tested on: RXF 393 renal
SF-268 CNS = tested on: SF-268 CNS
SF-295 CNS = tested on: SF-295 CNS
SF-539 CNS = tested on: SF-539 CNS
SK-MEL-28 melanoma = tested on: SK-MEL-28 melanoma
SK-MEL-5 melanoma = tested on: SK-MEL-5 melanoma
SK-OV-3 ovarian = tested on: SK-OV-3 ovarian
SN12C renal = tested on: SN12C renal
SNB-19 CNS = tested on: SNB-19 CNS
SNB-75 CNS = tested on: SNB-75 CNS
SR leukemia = tested on: SR leukemia
SW-620 colon = tested on: SW-620 colon
T-47D breast = tested on: T-47D breast
TK-10 renal = tested on: TK-10 renal
U251 glioblastoma = tested on: U251 glioblastoma
UACC-257 melanoma = tested on: UACC-257 melanoma
UO-31 renal = tested on: UO-31 renal
LOX IMVI melanoma = tested on: LOX IMVI melanoma

## CS(=O)c1ccc(-c2nc(-c3ccc(F)cc3)c(-c3ccncc3)[nH]2)cc1 (stereo not given)
786-0 renal
  GI50: 17.8 µM
  TGI: 36.5 µM
A498 renal
  GI50: 16.7 µM
  TGI: 55.2 µM
A549 NSCLC
  GI50: 38.9 µM
  TGI: > 100 µM
ACHN renal
  GI50: 19 µM
  TGI: 65.1 µM
BT-549 breast
  GI50: 41.7 µM
  TGI: > 100 µM
CAKI-1 renal
  GI50: 22.2 µM
  TGI: 88.4 µM
CCRF-CEM leukemia
  GI50: 17.7 µM
  TGI: 42.8 µM
COLO 205 colon
  GI50: 11.8 µM
  TGI: 24.5 µM
DU-145 prostate
  GI50: 30.4 µM
  TGI: 93.2 µM
EKVX NSCLC
  GI50: 32.6 µM
  TGI: > 100 µM
HCC-2998 colon
  GI50: 23.2 µM
  TGI: 38.7 µM
HCT-116 colon
  GI50: 23.3 µM
  TGI: 50.9 µM
HCT-15 colon
  GI50: 18.4 µM
  TGI: 37.1 µM
HL-60(TB) leukemia
  GI50: 16.4 µM
  TGI: 30.3 µM
HOP-62 NSCLC
  GI50: 23 µM
  TGI: 50.1 µM
HOP-92 NSCLC
  GI50: 34.8 µM
  TGI: > 100 µM
HS 578T breast
  GI50: 20.7 µM
  TGI: 39 µM
HT29 colon
  GI50: 11.1 µM
  TGI: 24 µM
IGROV1 ovarian
  GI50: 13.9 µM
  TGI: 28.9 µM
K-562 leukemia
  GI50: 27.8 µM
  TGI: > 100 µM
KM12 colon
  GI50: 27.4 µM
  TGI: 62.3 µM
M14 melanoma
  GI50: 6.96 µM
  TGI: 29.4 µM
MALME-3M melanoma
  GI50: 11.9 µM
  TGI: 28.1 µM
MCF7 breast
  GI50: 26.8 µM
  TGI: 90.7 µM
MDA-MB-231 breast
  GI50: 35.6 µM
  TGI: > 100 µM
MDA-MB-435 melanoma
  GI50: 33.2 µM
  TGI: > 100 µM
MDA-MB-468 breast
  GI50: 10.5 µM
  TGI: 29.2 µM
MOLT-4 leukemia
  GI50: 25.1 µM
  TGI: 62.2 µM
NCI-H226 lung
  GI50: 19.9 µM
  TGI: 34.4 µM
NCI-H23 lung
  GI50: 26.7 µM
  TGI: 52.6 µM
NCI-H322M lung
  GI50: 37.5 µM
  TGI: 96.2 µM
NCI-H460 NSCLC
  GI50: 27.8 µM
  TGI: 64.1 µM
NCI-H522 lung
  GI50: 14.8 µM
  TGI: 35.2 µM
NCI/ADR-RES ovarian
  GI50: 98.1 µM
  TGI: > 100 µM
OVCAR-3 ovarian
  GI50: 29.3 µM
  TGI: 68.8 µM
OVCAR-4 ovarian
  GI50: 38.2 µM
  TGI: 93.8 µM
OVCAR-5 ovarian
  GI50: 40.4 µM
  TGI: > 100 µM
OVCAR-8 ovarian
  GI50: 24 µM
  TGI: 90.4 µM
PC-3 prostate
  GI50: 40.3 µM
  TGI: > 100 µM
RPMI-8226 leukemia
  GI50: 23.6 µM
  TGI: 40.3 µM
RXF 393 renal
  GI50: 17.8 µM
  TGI: 33.5 µM
SF-268 CNS
  GI50: 43.4 µM
  TGI: > 100 µM
SF-295 CNS
  GI50: 20.1 µM
  TGI: 35.1 µM
SF-539 CNS
  GI50: 29.5 µM
  TGI: 71.6 µM
SK-MEL-28 melanoma
  GI50: 12.1 µM
  TGI: 25.6 µM
SK-MEL-5 melanoma
  GI50: 14.7 µM
  TGI: 28.4 µM
SK-OV-3 ovarian
  GI50: 22.7 µM
  TGI: 58.2 µM
SN12C renal
  GI50: 48.5 µM
  TGI: > 100 µM
SNB-19 CNS
  GI50: 56.8 µM
  TGI: > 100 µM
SNB-75 CNS
  GI50: 44.2 µM
  TGI: > 100 µM
SR leukemia
  GI50: 13.1 µM
  TGI: 26.4 µM
SW-620 colon
  GI50: 31.5 µM
  TGI: 49.2 µM
T-47D breast
  GI50: 27.4 µM
  TGI: 83.9 µM
TK-10 renal
  GI50: 16.8 µM
  TGI: 37.4 µM
U251 glioblastoma
  GI50: 27.8 µM
  TGI: 62.4 µM
UACC-257 melanoma
  GI50: 15.3 µM
  TGI: 30 µM
UO-31 renal
  GI50: 21.4 µM
  TGI: 69.9 µM

## O=C(Nc1cccc2cccnc12)c1ccc(N2C(=O)[C@@H]3[C@H](C2=O)[C@@H]2C=C[C@H]3C2)cc1
786-0 renal
  GI50: 21 µM
  TGI: 59.9 µM
A498 renal
  GI50: 25.9 µM
  TGI: > 100 µM
A549 NSCLC
  GI50: 32.2 µM
  TGI: > 100 µM
ACHN renal
  GI50: 45.1 µM
  TGI: > 100 µM
BT-549 breast
  GI50: 12.6 µM
  TGI: 30.5 µM
CAKI-1 renal
  GI50: 28.4 µM
  TGI: > 100 µM
CCRF-CEM leukemia
  GI50: 16.8 µM
  TGI: 42.3 µM
COLO 205 colon
  GI50: 37.6 µM
  TGI: > 100 µM
DU-145 prostate
  GI50: 26.2 µM
  TGI: > 100 µM
EKVX NSCLC
  GI50: 25.5 µM
  TGI: > 100 µM
HCC-2998 colon
  GI50: 20.1 µM
  TGI: 41.6 µM
HCT-116 colon
  GI50: 38.3 µM
  TGI: > 100 µM
HCT-15 colon
  GI50: 26.1 µM
  TGI: 98.2 µM
HL-60(TB) leukemia
  GI50: 12.3 µM
  TGI: 24.9 µM
HOP-62 NSCLC
  GI50: 21.7 µM
  TGI: 74.7 µM
HOP-92 NSCLC
  GI50: 43.7 µM
  TGI: > 100 µM
HS 578T breast
  GI50: 29.3 µM
  TGI: 93.7 µM
HT29 colon
  GI50: 14.4 µM
  TGI: 29.8 µM
IGROV1 ovarian
  GI50: 32.5 µM
  TGI: > 100 µM
K-562 leukemia
  GI50: 11.6 µM
  TGI: 25.9 µM
KM12 colon
  GI50: 32.3 µM
  TGI: > 100 µM
LOX IMVI melanoma
  GI50: 32.5 µM
  TGI: 89.6 µM
M14 melanoma
  GI50: 43.5 µM
  TGI: > 100 µM
MALME-3M melanoma
  GI50: 27.3 µM
  TGI: 88 µM
MCF7 breast
  GI50: 22.9 µM
  TGI: > 100 µM
MDA-MB-231 breast
  GI50: 36.3 µM
  TGI: > 100 µM
MDA-MB-435 melanoma
  GI50: 46.3 µM
  TGI: > 100 µM
MDA-MB-468 breast
  GI50: 3.84 µM
  TGI: 23.6 µM
MOLT-4 leukemia
  GI50: 16 µM
  TGI: 29.8 µM
NCI-H226 lung
  GI50: 18 µM
  TGI: 50 µM
NCI-H23 lung
  GI50: 16.9 µM
  TGI: 42.6 µM
NCI-H322M lung
  GI50: 42 µM
  TGI: > 100 µM
NCI-H460 NSCLC
  GI50: 20.5 µM
  TGI: 43.5 µM
NCI-H522 lung
  GI50: 16.4 µM
  TGI: 32.8 µM
NCI/ADR-RES ovarian
  GI50: 12 µM
  TGI: 26.7 µM
OVCAR-3 ovarian
  GI50: 25.3 µM
  TGI: > 100 µM
OVCAR-4 ovarian
  GI50: 21.6 µM
  TGI: > 100 µM
OVCAR-5 ovarian
  GI50: 56.8 µM
  TGI: > 100 µM
OVCAR-8 ovarian
  GI50: 27.8 µM
  TGI: 94.6 µM
PC-3 prostate
  GI50: 26 µM
  TGI: 70.4 µM
RPMI-8226 leukemia
  GI50: 21 µM
  TGI: 36.5 µM
RXF 393 renal
  GI50: 0.907 µM
  TGI: 24.6 µM
SF-268 CNS
  GI50: 41.2 µM
  TGI: > 100 µM
SF-295 CNS
  GI50: 17.7 µM
  TGI: 57.4 µM
SF-539 CNS
  GI50: 49.1 µM
  TGI: > 100 µM
SK-MEL-28 melanoma
  GI50: 54.5 µM
  TGI: > 100 µM
SK-MEL-5 melanoma
  GI50: 18.1 µM
  TGI: 32.7 µM
SK-OV-3 ovarian
  GI50: 57.2 µM
  TGI: > 100 µM
SN12C renal
  GI50: 47.8 µM
  TGI: > 100 µM
SNB-19 CNS
  GI50: 27.2 µM
  TGI: > 100 µM
SNB-75 CNS
  GI50: 30 µM
  TGI: 98.5 µM
SR leukemia
  GI50: 13.5 µM
  TGI: 32.9 µM
SW-620 colon
  GI50: 44.9 µM
  TGI: > 100 µM
T-47D breast
  GI50: 13 µM
  TGI: 27.1 µM
TK-10 renal
  GI50: 28.7 µM
  TGI: > 100 µM
U251 glioblastoma
  GI50: 19.4 µM
  TGI: > 100 µM
UACC-257 melanoma
  GI50: 36.2 µM
  TGI: > 100 µM
UO-31 renal
  GI50: 20.1 µM
  TGI: > 100 µM
